# From article PMC4851326, “Pharmacologic Comparison of Clinical Neutral Endopeptidase Inhibitors in a Rat Model of Acute Secretory Diarrhea” (The Journal of Pharmacology and Experimental Therapeutics, 2016)
# What was measured:
# Details in all cases: recombinant purified human enzyme; for prodrugs the active form was tested
# [1] = target: T1, puromycin-sensitive aminopeptidase (Homo sapiens, UniProt P55786); test: Purified peptidase assay, PSA; type: biochemical
# T1 construct: purchased R&D Systems (Minneapolis, MN)
# Protocol: (§1) Purified recombinant human enzymes were purchased from R&D Systems (Minneapolis, MN). […] Each substrate was diluted to 100 μM in the assay buffer recommended for each enzyme by the supplier. […] To these, 5 μl of diluted enzyme was added, followed by 10 μl of the quenched peptide substrate. The plates were incubated at 37°C until at least 10% substrate turnover or 5 μM product had formed. Fluorescence was measured using a Tecan Safire II (Excitation 320 nm/Emission 420 nm). Each plate included a standard curve of reaction product and positive (no enzyme) and negative (dimethyl sulfoxide vehicle) controls. Dose-response data were plotted and inhibition values (IC50) determined by linear regression analysis using GraphPad Prism (GraphPad Software, La Jolla, CA).
# aminopeptidase N = target: T2, aminopeptidase N (Homo sapiens, UniProt P15144); test: Purified peptidase assay, APN; type: biochemical
# T2 construct: purchased R&D Systems (Minneapolis, MN)
# Protocol: as §1
# ACE = target: T3, ACE (Homo sapiens, UniProt P12821); test: Purified peptidase assay, ACE; type: biochemical
# T3 construct: purchased R&D Systems (Minneapolis, MN)
# Protocol: as §1
# NEP = target: T4, NEP (Homo sapiens, UniProt P08473); test: Purified peptidase assay, NEP; type: biochemical
# T4 construct: purchased R&D Systems (Minneapolis, MN)
# Protocol: as §1
# IDE = target: T5, IDE (Homo sapiens, UniProt P14735); test: Purified peptidase assay, IDE; type: biochemical
# T5 construct: purchased R&D Systems (Minneapolis, MN)
# T5 sequence (P14735 1-1019): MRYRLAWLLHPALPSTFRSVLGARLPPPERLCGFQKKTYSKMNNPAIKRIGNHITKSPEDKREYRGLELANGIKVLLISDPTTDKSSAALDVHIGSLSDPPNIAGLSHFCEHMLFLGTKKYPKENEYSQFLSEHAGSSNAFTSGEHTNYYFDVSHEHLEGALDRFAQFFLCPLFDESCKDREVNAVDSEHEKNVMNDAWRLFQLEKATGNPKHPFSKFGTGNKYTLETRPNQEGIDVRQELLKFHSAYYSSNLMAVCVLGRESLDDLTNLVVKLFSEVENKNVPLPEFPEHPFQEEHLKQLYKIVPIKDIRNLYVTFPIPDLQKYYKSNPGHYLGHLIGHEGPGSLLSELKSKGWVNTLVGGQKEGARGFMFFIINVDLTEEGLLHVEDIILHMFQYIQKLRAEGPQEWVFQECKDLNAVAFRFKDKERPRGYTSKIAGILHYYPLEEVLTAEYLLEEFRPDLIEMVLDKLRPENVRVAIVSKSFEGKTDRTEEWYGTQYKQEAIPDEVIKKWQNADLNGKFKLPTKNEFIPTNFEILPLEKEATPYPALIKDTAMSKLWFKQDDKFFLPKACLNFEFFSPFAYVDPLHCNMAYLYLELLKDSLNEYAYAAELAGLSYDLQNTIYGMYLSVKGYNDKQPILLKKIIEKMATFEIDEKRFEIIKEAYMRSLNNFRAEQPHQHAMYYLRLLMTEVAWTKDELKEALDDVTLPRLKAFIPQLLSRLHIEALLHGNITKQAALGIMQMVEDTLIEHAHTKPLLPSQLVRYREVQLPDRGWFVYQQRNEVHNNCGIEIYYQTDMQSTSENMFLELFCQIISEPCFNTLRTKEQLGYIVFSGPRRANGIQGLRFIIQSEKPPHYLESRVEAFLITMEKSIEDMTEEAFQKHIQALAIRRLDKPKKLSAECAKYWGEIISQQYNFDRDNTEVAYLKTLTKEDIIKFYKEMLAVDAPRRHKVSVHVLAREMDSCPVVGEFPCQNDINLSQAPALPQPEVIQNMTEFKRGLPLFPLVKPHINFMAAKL
# Protocol: as §1
# ECE-1 = target: T6, ECE-1 (Homo sapiens, UniProt P42892); test: biochemical
# T6 construct: purchased R&D Systems (Minneapolis, MN)
# T6 sequence (P42892 1-770): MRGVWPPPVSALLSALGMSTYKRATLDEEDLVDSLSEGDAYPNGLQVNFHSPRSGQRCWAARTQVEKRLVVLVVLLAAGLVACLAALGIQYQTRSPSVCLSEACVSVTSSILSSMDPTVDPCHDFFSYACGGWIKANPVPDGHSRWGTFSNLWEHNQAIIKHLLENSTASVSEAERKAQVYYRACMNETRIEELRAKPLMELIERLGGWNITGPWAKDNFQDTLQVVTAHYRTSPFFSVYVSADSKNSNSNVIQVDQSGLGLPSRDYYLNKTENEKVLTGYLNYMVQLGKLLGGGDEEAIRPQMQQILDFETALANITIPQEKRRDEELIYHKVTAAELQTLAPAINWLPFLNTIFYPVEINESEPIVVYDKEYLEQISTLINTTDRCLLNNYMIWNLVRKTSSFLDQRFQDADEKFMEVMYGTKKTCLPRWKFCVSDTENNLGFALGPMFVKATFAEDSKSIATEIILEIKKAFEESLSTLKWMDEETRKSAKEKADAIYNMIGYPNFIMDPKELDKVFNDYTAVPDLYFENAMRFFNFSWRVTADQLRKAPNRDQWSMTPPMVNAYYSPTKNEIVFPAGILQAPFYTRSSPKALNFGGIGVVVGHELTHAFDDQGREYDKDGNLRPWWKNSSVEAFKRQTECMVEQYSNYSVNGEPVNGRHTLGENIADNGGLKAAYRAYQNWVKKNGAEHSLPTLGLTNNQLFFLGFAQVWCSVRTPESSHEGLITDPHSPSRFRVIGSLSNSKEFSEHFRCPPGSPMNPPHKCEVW
# Protocol: as §1
# ECE-2 = target: T7, ECE-2 (Homo sapiens, UniProt P0DPD6); test: Purified peptidase assay, ECE-2; type: biochemical
# T7 construct: purchased R&D Systems (Minneapolis, MN)
# T7 sequence (P0DPD6 1-811): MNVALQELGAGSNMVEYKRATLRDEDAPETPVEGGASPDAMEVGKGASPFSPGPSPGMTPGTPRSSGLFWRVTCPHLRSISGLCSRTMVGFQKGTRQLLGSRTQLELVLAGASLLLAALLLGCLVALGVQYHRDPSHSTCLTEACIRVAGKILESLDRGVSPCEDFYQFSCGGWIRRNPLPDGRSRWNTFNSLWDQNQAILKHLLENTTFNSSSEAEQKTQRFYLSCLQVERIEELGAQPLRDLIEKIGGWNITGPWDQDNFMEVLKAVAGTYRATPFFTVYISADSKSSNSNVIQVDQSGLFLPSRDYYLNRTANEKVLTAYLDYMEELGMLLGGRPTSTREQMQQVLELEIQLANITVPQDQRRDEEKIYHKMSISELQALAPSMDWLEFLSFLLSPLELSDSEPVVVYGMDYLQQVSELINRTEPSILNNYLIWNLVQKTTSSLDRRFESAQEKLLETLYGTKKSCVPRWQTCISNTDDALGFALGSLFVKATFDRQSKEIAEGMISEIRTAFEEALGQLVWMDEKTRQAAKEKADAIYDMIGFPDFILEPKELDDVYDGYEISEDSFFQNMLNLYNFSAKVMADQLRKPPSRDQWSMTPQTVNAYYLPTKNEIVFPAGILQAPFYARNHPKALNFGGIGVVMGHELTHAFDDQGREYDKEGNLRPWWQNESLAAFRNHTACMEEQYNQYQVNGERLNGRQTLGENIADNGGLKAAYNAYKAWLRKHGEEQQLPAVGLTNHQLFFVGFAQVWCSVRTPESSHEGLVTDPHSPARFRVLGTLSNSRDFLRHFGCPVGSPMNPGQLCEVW
# Protocol: as §1
# T2 sequence (P15144 whole entry): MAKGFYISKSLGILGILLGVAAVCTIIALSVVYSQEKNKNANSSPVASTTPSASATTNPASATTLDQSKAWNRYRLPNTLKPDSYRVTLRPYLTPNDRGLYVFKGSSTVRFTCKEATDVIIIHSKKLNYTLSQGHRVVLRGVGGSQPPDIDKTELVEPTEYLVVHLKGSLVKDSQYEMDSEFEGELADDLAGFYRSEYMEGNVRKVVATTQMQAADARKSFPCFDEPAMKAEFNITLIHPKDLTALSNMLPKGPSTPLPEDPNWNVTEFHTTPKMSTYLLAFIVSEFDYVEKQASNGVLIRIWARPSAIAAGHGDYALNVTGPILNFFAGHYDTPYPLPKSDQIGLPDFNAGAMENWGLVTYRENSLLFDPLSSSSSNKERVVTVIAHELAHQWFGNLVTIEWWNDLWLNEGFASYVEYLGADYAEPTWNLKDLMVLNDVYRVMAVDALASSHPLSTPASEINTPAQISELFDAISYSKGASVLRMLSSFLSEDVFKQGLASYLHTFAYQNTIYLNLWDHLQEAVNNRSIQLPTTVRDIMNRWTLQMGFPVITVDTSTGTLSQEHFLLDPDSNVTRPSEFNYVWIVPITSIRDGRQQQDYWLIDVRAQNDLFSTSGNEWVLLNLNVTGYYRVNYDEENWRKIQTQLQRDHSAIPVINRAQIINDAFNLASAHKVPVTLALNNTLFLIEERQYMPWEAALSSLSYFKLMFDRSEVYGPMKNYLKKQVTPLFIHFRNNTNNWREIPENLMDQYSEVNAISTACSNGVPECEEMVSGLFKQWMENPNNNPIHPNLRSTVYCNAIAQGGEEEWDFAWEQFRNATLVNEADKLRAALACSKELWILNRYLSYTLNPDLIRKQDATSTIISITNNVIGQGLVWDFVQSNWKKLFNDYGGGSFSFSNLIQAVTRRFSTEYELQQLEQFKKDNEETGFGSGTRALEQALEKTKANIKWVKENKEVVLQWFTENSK
# T4 sequence (P08473 whole entry): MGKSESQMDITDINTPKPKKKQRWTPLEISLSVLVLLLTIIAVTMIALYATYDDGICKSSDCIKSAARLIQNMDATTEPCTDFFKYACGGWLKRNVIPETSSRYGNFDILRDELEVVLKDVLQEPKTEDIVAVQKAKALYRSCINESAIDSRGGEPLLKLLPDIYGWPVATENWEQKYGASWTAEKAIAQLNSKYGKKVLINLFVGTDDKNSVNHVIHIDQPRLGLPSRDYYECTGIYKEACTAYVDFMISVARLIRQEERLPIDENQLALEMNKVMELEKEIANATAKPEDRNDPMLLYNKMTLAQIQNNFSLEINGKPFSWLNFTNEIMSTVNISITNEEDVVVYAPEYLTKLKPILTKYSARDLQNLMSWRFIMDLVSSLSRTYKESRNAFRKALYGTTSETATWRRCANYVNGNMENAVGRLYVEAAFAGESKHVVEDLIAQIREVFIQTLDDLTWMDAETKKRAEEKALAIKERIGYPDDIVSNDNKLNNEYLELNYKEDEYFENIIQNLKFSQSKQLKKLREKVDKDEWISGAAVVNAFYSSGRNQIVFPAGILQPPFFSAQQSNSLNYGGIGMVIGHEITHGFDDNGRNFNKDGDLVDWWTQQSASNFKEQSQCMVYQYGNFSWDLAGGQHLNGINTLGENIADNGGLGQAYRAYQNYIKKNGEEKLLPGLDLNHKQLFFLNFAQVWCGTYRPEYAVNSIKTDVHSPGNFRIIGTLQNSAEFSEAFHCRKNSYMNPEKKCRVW
# T3 sequence (P12821 30-1306): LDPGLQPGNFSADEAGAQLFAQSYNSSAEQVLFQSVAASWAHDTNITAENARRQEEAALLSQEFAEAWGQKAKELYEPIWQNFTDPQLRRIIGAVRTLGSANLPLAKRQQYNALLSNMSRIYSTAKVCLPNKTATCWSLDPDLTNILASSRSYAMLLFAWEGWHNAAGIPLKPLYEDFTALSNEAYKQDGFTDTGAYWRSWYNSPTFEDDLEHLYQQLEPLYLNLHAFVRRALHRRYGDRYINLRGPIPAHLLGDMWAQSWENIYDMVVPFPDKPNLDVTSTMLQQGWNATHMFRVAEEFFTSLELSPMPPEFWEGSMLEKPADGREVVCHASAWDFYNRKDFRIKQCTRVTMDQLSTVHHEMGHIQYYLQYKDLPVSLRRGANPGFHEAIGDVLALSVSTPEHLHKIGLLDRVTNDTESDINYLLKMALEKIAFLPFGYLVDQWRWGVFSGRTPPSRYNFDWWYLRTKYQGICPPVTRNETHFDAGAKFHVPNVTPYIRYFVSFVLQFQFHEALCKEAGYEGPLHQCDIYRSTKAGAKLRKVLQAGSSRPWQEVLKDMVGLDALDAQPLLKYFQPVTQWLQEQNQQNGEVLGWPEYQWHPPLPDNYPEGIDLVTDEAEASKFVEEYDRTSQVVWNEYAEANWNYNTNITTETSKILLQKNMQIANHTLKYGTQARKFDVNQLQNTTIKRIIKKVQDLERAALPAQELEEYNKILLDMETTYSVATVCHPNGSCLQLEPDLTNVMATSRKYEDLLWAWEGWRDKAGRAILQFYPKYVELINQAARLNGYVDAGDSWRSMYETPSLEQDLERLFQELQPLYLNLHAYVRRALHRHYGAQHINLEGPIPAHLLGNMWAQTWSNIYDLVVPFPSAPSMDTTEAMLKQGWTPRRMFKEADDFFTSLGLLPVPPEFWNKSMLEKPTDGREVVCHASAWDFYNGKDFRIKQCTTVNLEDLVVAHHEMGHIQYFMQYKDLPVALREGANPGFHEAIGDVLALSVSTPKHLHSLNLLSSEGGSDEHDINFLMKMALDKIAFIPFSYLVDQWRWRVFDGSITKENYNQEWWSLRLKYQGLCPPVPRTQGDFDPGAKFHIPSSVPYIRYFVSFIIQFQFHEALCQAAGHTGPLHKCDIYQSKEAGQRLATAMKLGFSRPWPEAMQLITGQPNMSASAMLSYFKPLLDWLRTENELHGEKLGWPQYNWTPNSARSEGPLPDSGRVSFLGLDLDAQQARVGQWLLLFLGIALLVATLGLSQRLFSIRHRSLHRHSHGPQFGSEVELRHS
# T1 sequence (P55786 whole entry): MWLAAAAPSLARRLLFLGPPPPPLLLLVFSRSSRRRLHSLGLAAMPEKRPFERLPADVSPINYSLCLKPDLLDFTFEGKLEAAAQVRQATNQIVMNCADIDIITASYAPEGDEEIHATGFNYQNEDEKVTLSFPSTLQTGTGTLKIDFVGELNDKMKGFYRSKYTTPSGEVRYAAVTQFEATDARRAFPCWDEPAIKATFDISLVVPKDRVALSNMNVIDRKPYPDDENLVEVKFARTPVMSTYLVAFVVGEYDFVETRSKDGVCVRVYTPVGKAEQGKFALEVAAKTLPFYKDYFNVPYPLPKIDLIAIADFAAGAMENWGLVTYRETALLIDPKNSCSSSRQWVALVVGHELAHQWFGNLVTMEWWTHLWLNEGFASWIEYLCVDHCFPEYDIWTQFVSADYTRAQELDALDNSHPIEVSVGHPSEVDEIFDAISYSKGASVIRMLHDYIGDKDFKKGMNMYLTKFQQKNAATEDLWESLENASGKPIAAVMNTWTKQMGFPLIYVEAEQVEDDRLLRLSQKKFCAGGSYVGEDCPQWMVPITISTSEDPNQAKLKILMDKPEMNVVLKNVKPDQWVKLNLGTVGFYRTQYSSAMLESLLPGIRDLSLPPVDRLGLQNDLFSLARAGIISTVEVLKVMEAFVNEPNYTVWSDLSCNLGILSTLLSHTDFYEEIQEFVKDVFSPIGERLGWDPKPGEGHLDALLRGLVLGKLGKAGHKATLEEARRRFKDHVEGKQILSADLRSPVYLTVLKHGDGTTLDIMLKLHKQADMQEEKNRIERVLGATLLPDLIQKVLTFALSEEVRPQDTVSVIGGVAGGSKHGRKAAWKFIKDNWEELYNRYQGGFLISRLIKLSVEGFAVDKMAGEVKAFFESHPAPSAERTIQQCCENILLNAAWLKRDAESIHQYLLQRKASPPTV
IC50 [1],IC50 (aminopeptidase N),IC50 (ACE),IC50 (NEP),IC50 (IDE),IC50 (ECE-1),IC50 (ECE-2),Structure (SMILES)
18 µM,18 µM,0.23 µM,0.06 µM,> 100 µM,12 µM,77 µM,CC1(C)CCC[C@H](NC(=O)[C@@H](S)Cc2ccccc2)C(=O)N1CC(=O)O [Gemopatrilat]
> 100 µM,28 µM,0.19 µM,0.04 µM,> 100 µM,21 µM,86 µM,O=C(N[C@H]1CCS[C@H]2CCC[C@@H](C(=O)O)N2C1=O)[C@@H](S)Cc1ccccc1 [Omapatrilat]
